In article PMC5082792 (PLoS ONE, 2016):

Legend:
HIV = tested on: HIV; parameters: method as in PMID 17617270, PMID 17617271; conditions: treatment-experienced patients, with optimized background regimen including DRV/r 600/100 mg BID; cited from earlier work
[1] = cited from earlier work
[2] = DRV plasma trough concentration ([DRV]plasma) by UPLC-DAD in HIV-1 infected patients, by CYP3A5 genotype-based expression status; format: in vivo, human
Source text: After a clinical assessment and in addition to the samples routinely collected for the clinical follow-up (viral load, CD4 cell count), two more blood samples were drawn immediately before drug intake, with the highest timing precision conceivable given the ambulatory context of the study recruitment. […] In order to obtain a post-intake delay as close as possible to the trough sampling time, each patient was personally contacted by phone a few days before the study visit to ensure not taking the medication prior to blood sampling.
Plasma was then collected and stored at -20°C until the day of quantification.
Genotype and allele frequencies were calculated and deviations from Hardy-Weinberg equilibrium (HWE) were evaluated using exact tests.
The patients were also classified into CYP3A5 expressors (CYP3A5*1 allele carriers) and CYP3A5 non-expressors (CYP3A5*3 homozygous).

[3] = addition of ETR 200mg bid to DRV/r 600/100mg bid; cited from earlier work

| decrease of plasma drug concentration by the drug-drug interaction ([2]; CYP3A5 expressors versus non-expressors, DRV with ETR) | mean [DRV]plasma (geometric mean trough concentration) ([2]; overall, all 135 patients) [ng/mL] | [DRV]plasma of a single patient ([2]; person, CYP3A5 expressor, DRV/r and ETR, detectable viral load) [ng/mL] | DRV plasma concentration (geometric mean) ([2]; subgroup DRV/r 600/100mg BID plus ETR n = 13, CYP3A5 expressors n = 5) | DRV plasma concentration (geometric mean) ([2]; subgroup DRV/r 600/100mg BID plus ETR n = 13, CYP3A5 non-expressors n = 8) | DRV plasma concentration (geometric mean) ([2]; subgroup DRV/r 800/100mg QD, CYP3A5 expressors n = 41) | Structure (SMILES) | virological efficacy, immunological recovery and clinical progression versus placebo (HIV) | decrease of ETR exposure ([1]; DRV/r with ETR 100mg twice daily compared to ETR alone) [%] | DRV plasma concentration (geometric mean) ([2]; subgroup DRV/r 600/100mg BID, CYP3A5 expressors n = 19) | DRV plasma concentration (geometric mean) ([2]; subgroup DRV/r 600/100mg BID, CYP3A5 non-expressors n = 23) | DRV plasma concentration (geometric mean) ([2]; subgroup DRV/r 800/100mg QD, CYP3A5 non-expressors n = 52) | DRV PK parameters (in particular Ctrough and Cmax) ([1]; DRV/r 600/100mg bid with ETR 100mg or 200mg bid, healthy volunteers) | increase of DRV AUC [3] [%] |
| --- | --- | --- | --- | --- | --- | --- | --- | --- | --- | --- | --- | --- | --- |
| – | – | – | – | – | – | Cc1cc(C#N)cc(C)c1Oc1nc(Nc2ccc(C#N)cc2)nc(N)c1Br [ETR, Etravirine] | superiority | 37 | – | – | – | – | – |
| more than 55% | 1805 | 652 | • 1486ng/ml • (CI95%:725–3044) • n = 5 | • 3141ng/ml • (CI95%: 2042–4831) • n = 8 | • 1693ng/ml • (CI95%:1314–2182) • n = 41 | CC(C)CN(C[C@@H](O)[C@H](Cc1ccccc1)NC(=O)O[C@H]1CO[C@H]2OCC[C@H]21)S(=O)(=O)c1ccc(N)cc1 [DRV, Darunavir] | – | – | • 2411 • (CI95%: 1895–3067) • n = 19 ng/ml | • 2430 • (CI95%: 1817–3249) • n = 23 ng/ml | • 1498ng/ml • (CI95%: 1227–1828) • n = 52 | unchanged | 14 |
